Columns and labels:
[1] = system: human islets; experiment: Intra-islet calcium concentration; format: cell-based; conditions: Tac−, Tac+AAGP groups
Method: Various electrophysiology studies were performed on human islets to elucidate a potential mechanism of action for the AAGP™ by characterizing the CNI-related injury and its avoidance.

[2] = system: syngeneic islet transplant; experiment: Syngeneic full mass islet transplant with continuous tacrolimus treatment; format: in vivo, mouse; conditions: AAGP in culture media 1 hour prior to transplant; tacrolimus 1 mg/kg/day by osmotic pump
From the text: FIG. 11 illustrates the post-transplant graft function in immunodefficient mice receiving minimal human islet mass (˜1000 IEQ). Islets were previously treated with AAGP™ and tracrolimus accordingly. […] The dotted line indicates graft recovery nephrectomy on day 60. B. Intraperitoneal glucose tolerance test (IPGTT) to evaluate metabolic response after receiving a glucose bolus. C. Insulin content of removed grafts after 60 days of transplant as an indication of residual islet mass. Data points represent mean±SEM adjusted per gram of tissue, (Tac− n=6, Tac+ n=3 and Tac+AAGP™ n=7), *p<0.05, **p<0.01 and ***p<0.001. D and E. Post-transplant graft function in mice receiving syngeneic full mass (˜500 IEQ) islet transplant. AAGP™ was added to the culture media 1 hour prior to transplant and tacrolimus was administered via a subcutaneous osmotic pump (implanted during the same procedure) at a continuous rate of 1 mg/kg/day. D. Pooled blood glucose profiles of animal over 40 days with clear dysfunction for Tac+ islets during the presence of Tac. Vertical dotted line indicates tacrolimus treatment cessation and marks a gradual recovery of Tac+ grafts. Horizontal continuous line at y=11 indicates the normoglycemia limit. Graft recovery nephrectomy was again performed on day 30. E. Mean time-to-euglycemia after transplant showing Tac+AAGP™ mice reversing diabetes earlier (p<0.001, log-rank, Mantel-cox test). […] These differences were not observed in the Tac+AAGP™ group.
To further support these findings a transplant experiment was performed in a syngeneic diabetic mouse transplant model with continuous treatment with tacrolimus to resemble clinical practice.
To make our experiments more clinically relevant, a new in vivo syngeneic mouse transplant model was performed, with tacrolimus as a continuous treatment by means of a subcutaneous osmotic pump. It was observed that the functional impairment of transplanted islets occurred immediately after starting administration of the CNI and lasted during the entire treatment period (7 days).

[3] = system: mouse splenocytes; experiment: Allogeneic mixed lymphocyte reaction, T cell proliferation by CFSE staining; format: cell-based; conditions: vs IgG control, n=4
From the text: The assay measures T cell proliferative response by levels of CFSE staining.

[4] = system: human islets; experiment: Viability by fluorescent membrane integrity assay (syto green/ethidium bromide); format: cell-based; conditions: AAGP 3 mg/mL, 24 hr culture, vs non-supplemented control
Method: After 24 hr of culture, islets are assessed for recovery, viability and function. Recovery rate is calculated as the percentage of surviving islets after 24 hr culture in comparison to the initial count for each condition. Viability is assessed using a fluorescent membrane integrity assay with counter-stains syto green/ethidium bromide (Cedarlane Laboratories, Burlington, ON, and Sigma-Aldrich, ON) (Islet isolation for clinical transplantation. In: Shahidul. M, (ed). The islets of Langerhans. New York: Springer, 2010; Ranuncoli A, et al. Cell transplantation 2000; 9(3):409-414; Ricordi C. et al. Acta diabetologica latina 1990; 27(3):185-195; and Barnett M J et al. Cell transplantation 2004; 13(5):481-488).

[5] = system: human islets; experiment: Extracellular ROS in culture media, Acridan Lumigen PS-3 assay; format: cell-based; conditions: media 24 hr after tacrolimus exposure, ± AAGP
Method: Frozen samples from all groups are utilized to determine reactive oxygen species (ROS) in the culture media, using the Acridan Lumigen™ PS-3 assay (Amershan ECL Plus kit, Fisher Scientific Inc. Ottawa, ON, Canada) (18). In this assay Acridan Lumigen™ PS-3 is excited by reactive oxygen and nitrogen species (RNS) in the presence of hydrogen peroxide, producing chemiluminescense at 430 nm. Media samples are flash-frozen with liquid nitrogen and stored until the assay is performed. CMRL culture media alone is used as a control, and results are expressed as fold-change increase compared to the control media.

[6] = system: human islet cells; experiment: Protection of human islets from tacrolimus toxicity (Example 2); format: cell-based; conditions: AAGP 3 mg/mL
Method: Research-grade human islet preparations are cultured for 48 hours in the following groups: • 1) No tacrolimus (Tac−) treated beta islet cells; • 2) Tracrolimus (Tac+) treated beta islet cells; and • 3) Tacrolimus (Tac+) treated+AAGP™ supplementation beta islet cells.
After 48 h, tacrolimus ([…]) was added to group 2 and 3.
(§1) Islets are cultured in humidified atmosphere of 95% air and 5% CO2 at 37° C., at a density of 200 IE/mL using standard tissue culture flask. AAGP™ concentration is 3 mg/mL. Several tests are conducted on D1 post-islet isolation, including: Islet recovery, membrane integrity viability stain (Syto EB) as well as Glucose-stimulated Insulin Release.

[7] = system: human islets; experiment: Glucose-stimulated insulin secretion (GSIS) perifusion assay; format: cell-based; conditions: AAGP 3 mg/mL, 24 hr culture
Method: Islet secretory function is assessed by monitoring in vitro insulin secretory profile during continuous glucose stimulation, as described by Cabrera et al Cell transplantation 2008;16(10):1039-1048. This in vitro perifusion assay is a modality of continuous Glucose-Stimulated Insulin Secretion (GSIS) test to stress islets in alternating normoglycemic and hyperglycemic environment to model physiological islet response. Supernatants from the perifusion assay are collected and insulin levels are determined using a commercially available ELISA kit (Insulin ELISA kit. Mercodia Inc. Pittsburgh, PA, USA). Results are expressed as fold-change of insulin secretion compared to the low (2.8 mMol) glucose stimulation baseline, normalized for 100 IEQ.

[8] = system: human islet cells; experiment: Initial characterization of human islets cultured 24 hours (Example 1); format: cell-based; conditions: AAGP 3 mg/mL
Method: Research-grade human islet preparations are cultured for 24 hours in the following groups: • 1) AAGP™ supplemented islets cells; and • 2) Controls (non-supplemented islets cells).
as §1, with “flask. The” for “flask.”, “day 1” for “D1”, “(Syto®” for “(Syto”, “Glucose-Stimulated” for “Glucose-stimulated”

[9] = system: human islets; experiment: Kidney subcapsular minimal mass islet transplant in Rag1 mice (Example 3); format: in vivo, immunodeficient mice (Rag1); conditions: ~1000 IEQ, islets cultured 24 h with AAGP 3 mg/mL, n=4 & 5
Method: Two research-grade human islet preparations are cultured for 24 hours in the following groups: • 1) AAGP™+ supplemented islets cells; and • 2) Control (non-supplemented islets)
Islets are cultured in humidified atmosphere of 95% air and 5% CO2 at 37° C., at a density of 200 IE/mL using standard tissue culture flask. AAGP™ concentration is 3 mg/mL. After 24 h, kidney subcapsular islet transplant is performed on immunodeficient mice (Rag1) with minimal islet mass (˜1000 IEQ) to assess transplant efficacy (n=4 & 5, control and AAGP™ respectively).

[10] = Solubility and stability of AAGP in media; format: physicochemical

solubility ([10]; all media): highly soluble in all media | stability ([10]; compared to natural AFP): more stable
Compound: C[C@H](NC(=O)[C@H](C)NC(=O)[C@@H](N)CCCCNC(=O)C(F)(F)C1(O)O[C@H](CO)[C@H](O)[C@H](O)[C@H]1O)C(=O)O (stereo partly shown) [AAGP™]
calcium concentration in islets [1]: neither tacrolimus nor AAGP™ affected the calcium concentration | graft function / period to achieve euglycemia [2]: period to achieve euglycemia was similar to the control group | T cell proliferation (CD8+ and CD4+) [3]: no significant decrease in proliferation of T cells | cellular viability per membrane integrity assay [4]: no differences in cellular viability | extracellular ROS (fold-increase vs control media) [5]: ameliorated | protection of islets exposed to tacrolimus in vitro [6]: protects islet exposed to tacrolimus in vitro | insulin secretion during the second secretory phase (perifusion curves) ([7]; vs control): significant increase in insulin secretion | GSIS perifusion area under the curve (insulin release) ([7]; control 75.5±0.5): 149.5±0.5 | toxicity on human islet cells [8]: no toxicity | islet survival in culture ([8]; 24 hours): seems to enhance islet survival in culture | transplant outcome with minimal islet mass [9]: inconclusive

Source: patent US12521419B2, “Use of anti-aging glycopeptides to enhance pancreatic cell health, survival and improve transplant outcome” (Protokinetix Inc., priority 2014, dated 2026)
